One block for each molecule: values may come before it.
Key:
[1] = target: T1, Avi-KRAS G12D (1-169) GppNHp/RAF1 RBD-3xFLAG (52-151) (Homo sapiens, UniProt P01116, G12D); experiment: Raf1-KRAS G12D-GppNHP disruption HTRF assay (Biological Example 1); type: binding
T1 construct: Avi-KRAS G12D (1-169)
Procedure, shortened: (§1)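 Measured with a KRAS/RAF1 HTRF assay at pH 7.5 in 10% DMSO, with two 1 h room-temperature incubations with shaking.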

[2] = target: T2, Avi-KRAS G12R (1-169) GppNHp/RAF1 RBD-3xFLAG (52-151) (Homo sapiens, UniProt P01116, G12R); experiment: Raf1-KRAS G12R-GppNHP disruption HTRF assay (Biological Example 1); type: binding
T2 construct: Avi-KRAS G12R (1-169)
Procedure, shortened: as §1

[3] = target: T3, Avi-KRAS G12V (1-169) GppNHp/RAF1 RBD-3xFLAG (52-151) (Homo sapiens, UniProt P01116, G12V); experiment: Raf1-KRAS G12V-GppNHP disruption HTRF assay (Biological Example 1); type: binding
T3 construct: Avi-KRAS G12V (1-169)
Procedure, shortened: as §1

[4] = target: T4, Avi-KRAS WT (1-169) GppNHp/RAF1 RBD-3xFLAG (52-151) (Homo sapiens, UniProt P01116); experiment: Raf1-KRAS WT-GppNHP disruption HTRF assay (Biological Example 1); type: binding
T4 construct: Avi-KRAS WT (1-169)
Procedure, shortened: as §1

[5] = tested on: GP2d cells (KRAS G12D); experiment: Cell-based pERK HTRF assay in GP2d cell (Biological Example 2); settings: GP2d, GP2d (KRAS G12D) cells, pERK HTRF
Procedure, shortened: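 HTRF read-out of pERK (excitation 320 nm, emission 615 nm) after lysates sat 4–24 h at room temperature with Eu cryptate and d2 antibodies.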

[6] = tested on: SW620 cells (KRAS G12V); experiment: Cell-based pERK HTRF assay in SW620 cell (Biological Example 4); settings: Homo sapiens, SW-620, SW620 (KRAS G12V) cells, pERK HTRF
Procedure, shortened: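 This assay measures inhibition of ERK phosphorylation downstream of KRAS G12V in intact SW620 cells. Compounds are applied for 4 h over nine half-log concentrations starting at 1 μM, and pERK is quantified by HTRF.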

[7] = KRAS G12D, GppNHp-loaded, class symbols
[8] = KRAS G12R, GppNHp-loaded, class symbols
[9] = KRAS G12V, GppNHp-loaded, class symbols
[10] = KRAS WT, GppNHp-loaded, class symbols
[11] = KRAS G12D, GppNHp-loaded, Table 11
[12] = KRAS G12R, GppNHp-loaded, Table 11
[13] = KRAS G12V, GppNHp-loaded, Table 11
[14] = KRAS WT, GppNHp-loaded, Table 11

T3 sequence (P01116 1-169 isoform P01116-2 G12V): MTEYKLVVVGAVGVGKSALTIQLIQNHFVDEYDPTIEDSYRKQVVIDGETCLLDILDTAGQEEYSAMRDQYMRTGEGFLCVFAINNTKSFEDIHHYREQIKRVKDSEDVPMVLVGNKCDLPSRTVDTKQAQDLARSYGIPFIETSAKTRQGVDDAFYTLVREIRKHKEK
T2 sequence (P01116 1-169 isoform P01116-2 G12R): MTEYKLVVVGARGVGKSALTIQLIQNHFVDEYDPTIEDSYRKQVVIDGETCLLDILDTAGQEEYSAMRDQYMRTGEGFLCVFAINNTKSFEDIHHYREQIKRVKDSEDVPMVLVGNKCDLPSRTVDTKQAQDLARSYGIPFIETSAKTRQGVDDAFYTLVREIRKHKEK
T4 sequence (P01116 1-169 isoform P01116-2): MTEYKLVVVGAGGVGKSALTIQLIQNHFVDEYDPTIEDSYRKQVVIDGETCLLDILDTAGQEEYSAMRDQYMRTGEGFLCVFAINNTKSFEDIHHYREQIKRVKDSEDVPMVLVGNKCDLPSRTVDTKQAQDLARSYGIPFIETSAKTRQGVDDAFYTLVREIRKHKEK
T1 sequence (P01116 1-169 isoform P01116-2 G12D): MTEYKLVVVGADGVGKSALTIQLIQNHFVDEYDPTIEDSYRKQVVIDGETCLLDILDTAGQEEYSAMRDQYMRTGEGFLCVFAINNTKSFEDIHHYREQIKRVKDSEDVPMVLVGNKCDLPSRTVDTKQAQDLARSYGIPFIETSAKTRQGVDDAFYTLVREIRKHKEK

- IC50 [1, 7]: 100 to 1000 nM
- IC50 [2, 8]: 100 to 1000 nM
- IC50 [3, 9]: 100 to 1000 nM
- IC50 [4, 10]: 100 to 1000 nM
- IC50 ([5]; class symbols): < 100 nM
- IC50 ([6]; class symbols): < 100 nM
SMILES: C[C@@H](c1cccnc1N)N(C)c1nc(OC[C@@]23CCCN2C[C@H](F)C3)nc2c(F)c(-c3ccc(F)c4sc(N)c(C#N)c34)c(C(F)(F)F)cc12 (atropisomer, axis not shown) [Compound 601]

- IC50 [1, 7]: < 100 nM
- IC50 [2, 8]: < 100 nM
- IC50 [3, 9]: < 100 nM
- IC50 [4, 10]: < 100 nM
- IC50 ([5]; class symbols): < 100 nM
- IC50 ([6]; class symbols): < 100 nM
SMILES: CCN(c1nc(OC[C@@]23CCCN2C[C@H](F)C3)nc2c(F)c(-c3ccc(F)c4sc(N)c(C#N)c34)c(C(F)(F)F)cc12)[C@H]1CCN(C(=O)c2cocn2)C1 (atropisomer, axis not shown) [Compound 719]

- IC50 [1, 7]: 100 to 1000 nM
- IC50 [2, 8]: 100 to 1000 nM
- IC50 [3, 9]: 100 to 1000 nM
- IC50 [4, 10]: 100 to 1000 nM
- IC50 ([5]; class symbols): < 100 nM
- IC50 ([6]; class symbols): < 100 nM
SMILES: Cc1nnn2c1CN(c1nc(OC[C@@]34CCCN3C[C@H](F)C4)nc3c(F)c(-c4ccc(F)c5sc(N)c(C#N)c45)c(C(F)(F)F)cc13)[C@@H](C)C2 (atropisomer, axis not shown) [Compound 624]

- IC50 [1, 7]: < 100 nM
- IC50 [2, 8]: < 100 nM
- IC50 [3, 9]: < 100 nM
- IC50 [4, 10]: < 100 nM
- IC50 ([5]; class symbols): < 100 nM
- IC50 ([6]; class symbols): < 100 nM
SMILES: [2H]C([2H])([2H])C([2H])(C(=O)N1CC[C@H](N(CC)c2nc(OC[C@@]34CCCN3C[C@H](F)C4)nc3c(F)c(-c4ccc(F)c5sc(N)c(C#N)c45)c(C(F)(F)F)cc23)C1)C([2H])([2H])[2H] (atropisomer, axis not shown) [Compound 707]

The next lines start with the molecule.

SMILES: N#Cc1c(N)sc2c(F)ccc(-c3c(C(F)(F)F)cc4c(N5CCN6C(=O)CCC6C5)nc(OCC56CCCN5CC(F)C6)nc4c3F)c12 (stereo not drawn) [Compound 412]
- IC50 ([1]; KRAS G12D-GppNHp/RAF1 RBD HTRF): 100 to 1000 nM
- IC50 ([2]; KRAS G12R-GppNHp/RAF1 RBD HTRF): 100 to 1000 nM
- IC50 ([3]; KRAS G12V-GppNHp/RAF1 RBD HTRF): 100 to 1000 nM
- IC50 ([4]; KRAS WT-GppNHp/RAF1 RBD HTRF): 100 to 1000 nM
- IC50 [5]: < 100 nM
- IC50 [6]: < 100 nM

SMILES: COCCN(C)c1nc(OC[C@@]23CCCN2C[C@H](F)C3)nc2c(F)c(-c3ccc(F)c4sc(N)c(C#N)c34)c(C(F)(F)F)cc12 [Compound 167]
- IC50 [1, 11]: 100 to 1000 nM
- IC50 [2, 12]: 100 to 1000 nM
- IC50 [3, 13]: 100 to 1000 nM
- IC50 [4, 14]: 100 to 1000 nM
- IC50 [5]: < 100 nM
- IC50 [6]: < 100 nM

SMILES: CC1c2cc(C(=O)N(C)C)nn2CCN1c1nc(OCC23CCCN2CC(F)C3)nc2c(F)c(-c3ccc(F)c4sc(N)c(C#N)c34)c(C(F)(F)F)cc12 (stereo not drawn) [Compound 568]
- IC50 [1, 7]: 1000 to 10000 nM
- IC50 [2, 8]: 100 to 1000 nM
- IC50 [3, 9]: 100 to 1000 nM
- IC50 [4, 10]: 1000 to 10000 nM
- IC50 ([5]; class symbols): < 100 nM
- IC50 ([6]; class symbols): < 100 nM

SMILES: C[C@H]1CN(c2nc(OC[C@@]34CCCN3C[C@H](F)C4)nc3c(F)c(-c4ccc(F)c5sc(N)c(C#N)c45)c(C(F)(F)F)cc23)Cc2cc(C(=O)N(C)C)nn21 [Compound 402]
- IC50 ([1]; KRAS G12D-GppNHp/RAF1 RBD HTRF): 100 to 1000 nM
- IC50 ([2]; KRAS G12R-GppNHp/RAF1 RBD HTRF): 100 to 1000 nM
- IC50 ([3]; KRAS G12V-GppNHp/RAF1 RBD HTRF): 100 to 1000 nM
- IC50 ([4]; KRAS WT-GppNHp/RAF1 RBD HTRF): 1000 to 10000 nM
- IC50 [5]: < 100 nM
- IC50 [6]: < 100 nM

SMILES: CC(=O)NCCN(C)c1nc(OC[C@@]23CCCN2C[C@H](F)C3)nc2c(F)c(-c3ccc(F)c4sc(N)c(C#N)c34)c(C(F)(F)F)cc12 [Compound 284]
- IC50 ([1]; KRAS G12D-GppNHp/RAF1 RBD HTRF): 100 to 1000 nM
- IC50 ([2]; KRAS G12R-GppNHp/RAF1 RBD HTRF): 100 to 1000 nM
- IC50 ([3]; KRAS G12V-GppNHp/RAF1 RBD HTRF): 100 to 1000 nM
- IC50 ([4]; KRAS WT-GppNHp/RAF1 RBD HTRF): 100 to 1000 nM
- IC50 [5]: < 100 nM
- IC50 [6]: < 100 nM

SMILES: N#Cc1c(N)sc2c(F)ccc(-c3c(C(F)(F)F)cc4c(N5CC[C@@H]5CF)nc(OC[C@@]56CCCN5C[C@H](F)C6)nc4c3F)c12 [Compound 272]
- IC50 [1, 11]: 100 to 1000 nM
- IC50 [2, 12]: 100 to 1000 nM
- IC50 [3, 13]: 100 to 1000 nM
- IC50 [4, 14]: 100 to 1000 nM
- IC50 [5]: < 100 nM
- IC50 [6]: < 100 nM

SMILES: CCN(c1nc(OC[C@@]23CCCN2C[C@H](F)C3)nc2c(F)c(-c3ccc(F)c4sc(N)c(C#N)c34)c(C(F)(F)F)cc12)[C@H]1CCN(C(=O)N(C)C2CC2)C1 (atropisomer, axis not shown) [Compound 583]
- IC50 [1, 7]: < 100 nM
- IC50 [2, 8]: < 100 nM
- IC50 [3, 9]: < 100 nM
- IC50 [4, 10]: < 100 nM
- IC50 ([5]; class symbols): < 100 nM
- IC50 ([6]; class symbols): < 100 nM

— patent publication US20260042764A1, “COMPOSITIONS AND METHODS FOR INHIBITION OF KRAS” (TheRas, Inc., priority 2022, published 2026)
